The values that follow are results of earlier work, collected in US9145400B2, “Process for the preparation of form III of vilazodone hydrochloride” (Sandoz AG, priority 2013, dated 2015).

Like-named read-outs stand apart in the source and are kept apart here.

The conditions of data set [1]: DVS, humidity of about 90%; takes up water only in minimal amounts; per WO 02/102794.
For data set [2] the following is noted: at room temperature.

In the case of `Cl.N#Cc1ccc2[nH]cc(CCCCN3CCN(c4ccc5oc(C(N)=O)cc5c4)CC3)c2c1` [form III of Vilazodone hydrochloride, 5-(4-[4-(5-cyano-1H-indol-3-yl)butyl]piperazin-1-yl)benzofuran-2-carboxamide hydrochloride], the “hygroscopicity (water uptake)” value in data set [1] is on record as “non-hygroscopic”. Moreover, the “thermodynamic stability among polymorphs” value is “thermodynamically most stable form” in data set [2] (per WO 02/102794 page 20, lines 23-26 and FIG. 27, listed as Vilazodone hydrochloride crystalline form III); “most thermodynamically stable polymorph” in data set [2] (per WO 02/102794 page 20, lines 23-26 and FIG. 27, hydrochloride).
